The record followed here is patent publication US9522930B2, “Chartreusin analogues” (Leibniz-Institut Für Naturstoff-Forschung Und …, priority 2012, dated 2016).

Series [1] relates to Hs27 foreskin fibroblast cells (ATCC, CRL-1634). The experiment in a line: Growth inhibition of Hs27 in the presence or absence of light. The series is classed as cell-based, human. To be noted: for GI50: Homo sapiens, 72 hours. The source says:
In order to verify the extraordinary in vitro photo induced activity a human foreskin fibroblast cell line (Hs27) has been chosen to evaluate the antiproliferative activity against human cells. During this assay a control group without light has been tested under standard conditions. One group was irradiated with a very homogenous LED cluster under the same conditions. […] This indicates the high potential of this new chartreusin-like structure motive as a drug for epithel cell carcinomas. Not only superficial areas like the skin in case of melanoma can be irradiated also endoscopic accessible areas like the bladder, colon, esophageal or laryngeal cancers are conceivable for a treatment.
The Hs27 foreskin fibroblast cells (ATCC, CRL-1634) were grown in RPMI 1640 (CAMBREX 12-167F) supplemented with 500 μl/l gentamicin sulfate (Cambrex 17-518Z), 10% heat inactivated fetal bovine serum (PAA A15-104), at 37° C. in plastic flasks (NUNC) in a humidified atmosphere containing 5% CO2.
The adherent cells of Hs27 were harvested at the logarithmic growth phase after soft trypsinization using 0.25% trypsin in PBS containing 0.02% EDTA (Biochrom KG L2163).
Hs27 cells were seeded with 1×10^4 cells per 0.1 mL per well of the 96-well microplates (NUNC 167008). Then, the plates were prepared with dilutions of the compounds.
The influence of the different dilutions of compounds in the absence or presence of light (distance to the cells: 4 cm) were assayed for 72 hours at 37° C. in a humidified atmosphere containing 5% CO2. After incubation time, the effect of compounds in the absence or presence of light were analyzed in compare to negative control.
For this, the adherent Hs27 cells were fixed by glutaraldehyde (MERCK 1.04239.0250) and stained with a 0.05% solution of methylene blue (SERVA 29198) for 15 min. After gentle washing, the stain was eluted by 0.2 mL of 0.33 N HCl in the wells. The optical densities were measured at 660 nm in a microplate reader (Tecan “Sunrise”, Austria). Under the experimental conditions, the signals from the methylene blue are proportional to the number of viable cells.

The test system of series [2] is defined DNA fragments (1.5 kb). The experiment in a line: Laser-induced DNA-adduct assay, gel electrophoresis with a specified DNA fragment. To be noted: 1% agarose gel; for electrophoretic band shift of DNA fragment, irradiated: blue laser 405 nm, 20 mW, 30 sec. How it is done:
However, the situation changed substantially under photoinducing conditions. A GaN laser has been used for an induced DNA-adduct assay because a laser warrants high spectral purity combined with a high power density. Furthermore, the emission wavelength (405 nm) fits to the absorption maximum of chartreusin, which is a prerequisite to efficiently activating the molecule.
For the assay defined DNA fragments (1.5 kb) were treated with either chartreusin or 1-vinylchartreusin, and the effect of blue laser irradiation was compared to negative controls incubated in the dark or with daylight.
DNA-Adduct formation was carried out using a pure specified DNA fragment with the following sequence:
8 μL of water, 2 μL of DNA (25.7 ng/μL) were either directly treated with 2 μL loading buffer or were treated additionally with 0.1 μL (1 mg/mL in DMSO) substrate. The solution was irradiated with a laser (405 nm, 20 mW) for 30 sec. and then treated with loading buffer. The DNA was loaded on 1% agarose gel with ethidium bromide operating at 120 V (FIG. 2).

Series [3] concerns human HT-29 colon adenocarcinoma cells (ACC 299). The experiment in a line: Growth inhibition of HT-29 in the presence or absence of light. The class given is cell-based. Here is the method:
(§1) The human HT-29 colon adenocarcinoma cells (ACC 299) and the human MEL-HO (ACC 62) melanoma cells were grown as previously described (Ueberschaar, N.; Dahse, H.-M.; Bretschneider, T.; Hertweck, C. Angew. Chem. Int. Ed. 2013, 52, 6185-6189).

Series [4] has as its system human MEL-HO (ACC 62) melanoma cells. The experiment in a line: Growth inhibition of MEL-HO in the presence or absence of light. The series is classed as cell-based. Here is the method:
as §1

In series [5] the test system is Mycobacterium vaccae 10670. The experiment in a line: Antimicrobial activity (MIC), test strain Mycobacterium vaccae 10670. The series is classed as cell-based. To be noted: Mycolicibacterium vaccae; Test strain: Mycobacterium vaccae 10670; read-out: Antimicrobial MIC value, Mycobacterium vaccae. An excerpt:
Antimicrobial (MIC value [μM]), cytotoxic (CC50 [μM] for HeLa) and antiproliferative (GI50 [μM] for HUVEC, K-562, HT-29 and MEL-HO) activities of chartreusin and its derivatives. Test strain: Mycobacterium vaccae 10670.

Series [6] relates to human chronic myeloid leukemia cells K-562 (DSM ACC 10). The experiment in a line: Growth inhibition (antiproliferative effect) of K-562. The class given is cell-based. To be noted: for GI50: Homo sapiens, K562, read-out: antiproliferative GI50, K-562.
Experimental: (§2) Compounds were assayed against human umbilical vein endothelial cells HUVEC (ATCC CRL-1730) and human chronic myeloid leukemia cells K-562 (DSM ACC 10) for their antiproliferative effects (GI50) and against human cervix carcinoma cells HeLa (DSM ACC 57) for their cytotoxic effects (CC50) as previously described (Scherlach, K., Partida-Martinez, L. P., Dahse, H. M. & Hertweck, C. Antimitotic rhizoxin derivatives from a cultured bacterial endosymbiont of the rice pathogenic fungus Rhizopus microsporus. Journal of the American Chemical Society 128, 11529-11536 (2006)).
For series [7], the system named is human umbilical vein endothelial cells HUVEC (ATCC CRL-1730). The experiment in a line: Growth inhibition (antiproliferative effect) of HUVEC. To be noted: for GI50: Homo sapiens, read-out: antiproliferative GI50, HUVEC. The series is classed as cell-based.
Experimental: as §2
Series [8] is described as follows: in vitro. To be noted: human.
Experimental: as §2
Series [9] concerns vancomycin-resistant Enterococcus (VRE). The experiment in a line: VRE assay (MIC). The class given is cell-based. As to conditions: read-out: MIC against VRE.
Series [10] concerns methicillin-resistant Staphylococcus aureus (MRSA). The experiment in a line: Antibiotic activity against MRSA. The series is classed as cell-based.
Series [11] in a line: Cytotoxicity against HeLa. To be noted: human, HeLa cells (human cervix carcinoma, DSM ACC 57).
Experimental: as §2
In series [12] the test system is human cervix carcinoma cells HeLa (DSM ACC 57). The experiment in a line: Cytotoxicity against HeLa. To be noted: HeLa, standard conditions.
Experimental: as §2
The mark [13] stands for this setting: Hs27, with light vs without light.
The mark [14] stands for this setting: Homo sapiens, HT-29, 8 h, HT-29, 420 nm, 3 × 8 h, read-out: antiproliferative GI50, HT-29, 420 nm, 3 × 8 h.
[15] abbreviates: Homo sapiens, HT-29, HT-29, w/o light, read-out: antiproliferative GI50, HT-29, w/o light.
Setting [16] is: Homo sapiens, HT-29, HT-29, with light (blue LED), read-out: GI50 with light, HT-29.
Setting [17] is: Homo sapiens, HT-29, HT-29, without light (absence of light), read-out: GI50 without light, HT-29.
Setting [18] is: 8 h, read-out: antiproliferative GI50, Mel-HO, 420 nm, 3 × 8 h.
The mark [19] stands for this setting: read-out: antiproliferative GI50, Mel-HO, w/o light.

≈ marks a conversion by molar mass, not a printed value. Read-outs that look alike come from different tables or passages of the source.

As a reminder, the MIC is the least concentration at which growth counts as inhibited. For `CO[C@H]1[C@@H](O)[C@@H](C)O[C@H](O[C@H]2[C@H](Oc3cccc4c(O)c5c(=O)oc6ccc(C)c7c(=O)oc(c34)c5c67)O[C@H](C)[C@H](O)[C@@H]2O)[C@@H]1O` [Chartreusin], the “effect of light on antiproliferative activity, Hs27” value in series [1] (setting [13]) was “not affected by treatment with light”. Besides, in series [2], the “electrophoretic band shift of DNA fragment, irradiated” value is given as “electrophoretic properties of the DNA fragment could be fully reserved”. For the same molecule, the GI50 in series [3] (setting [14]) is 7.65 µM; in series [3] (setting [15]), 7.96 µM; in series [3] (setting [16]), 7.65 µM; in series [3] (setting [17]), 7 to 9.4 µM; in series [4] (setting [18]) it was 2.34 µM; in series [4] (setting [19]), 1.56 µM. Besides, the GI50 in series [6] was found to be 1.56 µM; in series [7], 6.24 µM. For the same molecule, the values for the MIC in [5] and in [9] were 1.2 µM (≈ 0.769 µg/mL) and 9.59 to 9.76 µM (≈ 6.14 to 6.25 µg/mL), respectively. The molecule further registered a CC50 in [8] of 12.6 µM.
For `C=Cc1ccc2oc(=O)c3c(O)c4cccc(O[C@@H]5OC(C)[C@H](O)[C@H](O)C5O[C@H]5OC(C)[C@H](O)C(OC)[C@H]5O)c4c4oc(=O)c1c2c34` (stereo partly shown) [Vinylchartreusin, 1-Vinylchartreusin], the “antibiotic activity against MRSA relative to chartreusin and ciprofloxacin” value in series [10] was “as active as the natural product and are even more potent than the reference antibiotic ciprofloxacin”. In addition, the GI50 in series [1] (light or radiation study, Hs27, irradiated with LED cluster, read-out: GI50 value with light, Hs27) is 0.5 µg/mL (≈ 0.766 µM); in series [1] (Hs27, without light, read-out: GI50 value without light, Hs27), 6.8 µg/mL (≈ 10.4 µM); in [3] (HT-29, without light (absence of light), read-out: GI50 without light, HT-29), 7.1 µM; in series [3] (setting [14]) it was 0.61 µM; in series [3] (setting [15]), 7.05 µM; in series [3] (setting [16]), 0.6 µM. In addition, the GI50 in [3] (setting [17]) was 7 to 9.4 µM; in [4] (setting [18]) it was 0.08 µM; in series [4] (setting [19]) it was 0.11 µM; in series [6], 3.06 µM; in series [7], 32.8 µM. Moreover, the “GI50 with light lower than without light, Hs27” value in series [1] (setting [13]) was “more than 10 fold”. The “electrophoretic band shift of DNA fragment, irradiated” value in series [2] is listed as “clear band shift to a higher molecular mass”. Besides, the “electrophoretic band shift of DNA fragment, not irradiated” value in series [2] (not irradiated (dark or daylight)) is listed as “no shift”. For the same molecule, the MIC in series [5] was 4.8 µM (≈ 3.13 µg/mL); in series [9], 9.59 to 9.76 µM (≈ 6.26 to 6.37 µg/mL). The “activity relative to chartreusin and homochartreusin, K562” value in [6] (K562, standard conditions) was “only slightly lower than chartreusin and homochartreusin”. Further, in [7] (standard conditions (no photoinduction)), the “less active than chartreusin, HUVEC” value is “about 4 fold”. This molecule displayed a CC50 in [11] of 24.7 µM. The “activity relative to chartreusin and homochartreusin, HeLa” value in [12] was “only slightly lower than chartreusin and homochartreusin”.
